The target in experiment [1] is BTK enzyme (recombinant full-length BTK, hBTK) (Homo sapiens (Human), UniProt Q06187). Nature of the experiment: Btk enzyme activity assay, LANCE TR-FRET. Format: biochemical. The following applies: 50 pM hBTK, 2 μM biotin-A5-peptide, 25 μM ATP; 60 minute compound & enzyme incubation; read-out: BTK binding IC50. The method, then:
Btk Enzyme Activity Assay Methods
BTK enzymatic activity was determined with the LANCE (Lanthanide Chelate Excite) TR-FRET (Time-resolved fluorescence resonance energy transfer) assay. […] After 60 minutes incubation with detection reagents, reaction plates were read on a PerkinElmer EnVision plate reader using standard TR-FRET protocol.

Experiment [2] relates to HeLa cells. The experiment is described as follows: [3H] Adenosine uptake assay. Format: cell-based. As to conditions: accumulation of tritiated adenosine into HeLa cells, compound concentration range 10 μM to 0.032 nM, read-out: ADU inhibition IC50 (adenosine uptake inhibition potency). In outline: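 HeLa cells in HBSS + 5% FBS preincubated 30 min at ambient temperature with compound (0.25% DMSO), then [3H]adenosine (500 nM stock) added for 60 min. Uptake measured by scintillation proximity counting; IC50 from 4-parameter fit of counts vs log concentration.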

Where two headings read alike, the source gives them in different places.

Sequence of BTK enzyme (recombinant full-length BTK, hBTK) (Q06187 whole entry): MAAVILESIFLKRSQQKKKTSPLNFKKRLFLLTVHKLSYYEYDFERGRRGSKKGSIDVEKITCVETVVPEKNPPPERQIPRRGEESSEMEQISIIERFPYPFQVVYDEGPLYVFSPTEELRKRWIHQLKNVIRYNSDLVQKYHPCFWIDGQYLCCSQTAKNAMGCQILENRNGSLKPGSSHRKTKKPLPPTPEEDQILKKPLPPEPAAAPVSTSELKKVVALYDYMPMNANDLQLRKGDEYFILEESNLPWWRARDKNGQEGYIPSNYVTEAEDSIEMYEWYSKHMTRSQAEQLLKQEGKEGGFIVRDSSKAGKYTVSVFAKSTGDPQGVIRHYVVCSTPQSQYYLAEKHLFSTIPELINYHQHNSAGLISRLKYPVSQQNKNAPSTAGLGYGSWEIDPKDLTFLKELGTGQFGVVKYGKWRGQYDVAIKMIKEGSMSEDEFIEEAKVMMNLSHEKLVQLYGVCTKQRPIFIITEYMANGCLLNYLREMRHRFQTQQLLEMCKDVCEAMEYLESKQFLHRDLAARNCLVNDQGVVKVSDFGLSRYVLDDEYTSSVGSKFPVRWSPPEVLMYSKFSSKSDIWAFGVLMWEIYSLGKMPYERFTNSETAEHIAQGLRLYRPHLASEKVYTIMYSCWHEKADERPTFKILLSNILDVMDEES

Turning to `CCOc1cc(C(=O)Nc2cc(C(F)(F)F)ccn2)ccc1-c1nc([C@H]2CCC[C@](C(=O)O)(C(C)C)C2)n2ccnc(N)c12` [Example 90, (1R,3S)-3-[8-amino-1-(2-ethoxy-4-{[4-(trifluoromethyl)pyridin-2-yl]carbamoyl}phenyl)imidazo[1,5-a]pyrazin-3-yl]-1-(1-methylethyl) cyclohexane-carboxylic acid], the IC50 – broadly, the midpoint of a concentration-inhibition curve – in experiment [1] was 1.8 nM; in experiment [2] (Homo sapiens, HeLa), 10000 nM.
For `CCOc1cc(C(=O)Nc2cc(C(F)(F)F)ccn2)ccc1-c1nc([C@H]2CC[C@](C(=O)O)(C(C)C)C2)n2ccnc(N)c12` [Example 62, (1R,3S)-3-[8-amino-1-(2-ethoxy-4-{[4-(trifluoromethyl)pyridin-2-yl]carbamoyl}phenyl)imidazo[1,5-a]pyrazin-3-yl]-1-(1-methylethyl) cyclopentane-carboxylic acid] the same measures were 12.2 nM and 10000 nM.
Regarding `CCOc1cc(C(=O)Nc2cc(C(F)(F)F)ccn2)ccc1-c1nc([C@]23CC[C@](C(=O)O)(CC2O)C(O)C3)n2ccnc(N)c12` (stereo partly drawn) [Example 73, (1S,4R)-4-[8-amino-1-(2-ethoxy-4-{[4-(trifluoromethyl)pyridin-2-yl]carbamoyl}phenyl)imidazo[1,5-a]pyrazin-3-yl]-2,5-dihydroxybicyclo [2.2.2]octane-1-carboxylic acid], the IC50 in experiment [1] was 8.8 nM; in experiment [2] (Homo sapiens, HeLa), 3650 nM.
For `CC1(C(=O)O)CCC(C)(c2nc(-c3ccc(C(=O)Nc4cc(C(F)(F)F)ccn4)cc3Cl)c3c(N)nccn23)CC1` (stereo not shown) [Example 133, 4-[8-amino-1-(2-chloro-4-{[4-(trifluoromethyl)pyridin-2-yl]carbamoyl}phenyl)imidazo[1,5-a]pyrazin-3-yl]-1,4-dimethylcyclohexane-carboxylic acid] the same measures were 1 nM and 5230 nM.
Taken in the same sequence, the figures for `C[C@H]1CO[C@@H](c2nc(-c3ccc(C(=O)Nc4cc(C(F)(F)F)ccn4)cc3F)c3c(N)ncc(Cl)n23)CN1[C@H]1CC[C@](C)(C(=O)O)CC1` [Example 200, trans-4-{(2R,5S)-2-[8-amino-5-chloro-1-(2-fluoro-4-{[4-(trifluoromethyl)pyridin-2-yl]carbamoyl}phenyl)imidazo [1,5-a]pyrazin-3-yl]-5-methylmorpholin-4-yl}-1-methylcyclohexanecarboxylic acid] were 0.42 nM and 1690 nM.
For the molecule `CCOc1cc(C(=O)Nc2cc(C(F)(F)F)ccn2)ccc1-c1nc([C@@H]2CC[C@@H](C(=O)O)O2)n2ccnc(N)c12` [Example 117, (2S,5S)-5-[8-amino-1-(2-ethoxy-4-{[4-(trifluoromethyl)pyridin-2-yl]carbamoyl}phenyl)imidazo[1,5-a]pyrazin-3-yl]tetrahydrofuran-2-carboxylic acid], the half-maximal inhibitory concentration (IC50) in experiment [1] stood at 8.7 nM; in experiment [2] it was 3050 nM.
With `C[C@H]1CO[C@@H](c2nc(-c3ccc(C(=O)Nc4cc(C(F)(F)F)ccn4)cc3)c3c(N)nccn23)CN1[C@H]1CC[C@](C)(C(=O)O)CC1` [Example 191, trans-4-{(2R,5S)-2-[8-amino-1-(4-{[4-(trifluoromethyl)pyridin-2-yl]carbamoyl}phenyl)imidazo [1,5-a]pyrazin-3-yl]-5-methylmorpholin-4-yl}-1-methylcyclohexanecarboxylic acid], the IC50 was found to be 0.65 nM in experiment [1] and 1190 nM in experiment [2] (Homo sapiens, HeLa).
As to `Nc1nccn2c([C@@H]3CCC[C@H](C(=O)O)C3)nc(-c3ccc(C(=O)Nc4cc(C5CC5)ccn4)cc3F)c12` [Example 9, (1S,3R)-3-(8-amino-1-{4-[(4-cyclopropyl-pyridin-2-yl)carbamoyl]-2-fluorophenyl}imidazo[1,5-a]pyrazin-3-yl)cyclohexane-carboxylic acid], the concentration for half-maximal inhibition (IC50) in experiment [1] is 1.2 nM; in experiment [2] (Homo sapiens, HeLa) it was 4400 nM.
For `CCOc1cc(C(=O)Nc2cc(C(F)(F)F)ccn2)ccc1-c1nc(C2CC3(CC(C(=O)O)C3)C2)n2ccnc(N)c12` (stereo not shown) [Example 93, 6-[8-amino-1-(2-ethoxy-4-{[4-(trifluoromethyl)pyridin-2-yl]carbamoyl}phenyl)imidazo[1,5-a]pyrazin-3-yl]spiro[3.3]heptane-2-carboxylic acid] the same measures were 0.51 nM and 4640 nM.
Regarding `CCOc1cc(C(=O)Nc2cc(C(F)(F)F)ccn2)ccc1-c1nc(C2CCC(C)(C(=O)O)CC2)n2c(Cl)cnc(N)c12` (stereo not shown) [Example 165, 4-[8-amino-5-chloro-1-(2-ethoxy-4-{[4-(trifluoromethyl)pyridin-2-yl]carbamoyl}phenyl)imidazo[1,5-a]pyrazin-3-yl]-1-methylcyclohexane-carboxylic acid], the 50% inhibitory concentration (IC50) in experiment [1] was 4.4 nM; in experiment [2] (Homo sapiens, HeLa), 10000 nM.
For `COc1cc(C(=O)Nc2cc(C(F)(F)F)ccn2)cc(F)c1-c1nc(C23CCC(C(=O)O)(CC2)CC3)n2ccnc(N)c12` [Example 108, 4-[8-amino-1-(2-fluoro-6-methoxy-4-{[4-(trifluoromethyl)pyridin-2-yl]carbamoyl}phenyl)imidazo[1,5-a]pyrazin-3-yl]bicyclo[2.2.2] octane-1-carboxylic acid], the IC50 was determined as 0.73 nM in experiment [1] and 6690 nM in experiment [2] (Homo sapiens, HeLa).
For `CCOc1cc(C(=O)Nc2cc(C(F)(F)F)ccn2)ccc1-c1nc(C2(C)CCC(C)(C(=O)O)C2)n2ccnc(N)c12` (stereo not shown) [Example 22, 3-(8-amino-1-(2-ethoxy-4-((4-(trifluoromethyl)pyridin-2-yl)carbamoyl)phenyl)imidazo[1,5-a]pyrazin-3-yl)-1,3-dimethylcyclopentanecarboxylic acid] the same measures were 0.66 nM and 6290 nM.
Turning to `C[C@H]1CO[C@@H](c2nc(-c3ccc(C(=O)Nc4cc(C(F)F)ccn4)cc3F)c3c(N)ncc(Cl)n23)CN1[C@H]1CC[C@](C)(C(=O)O)CC1` [Example 207, trans-4-{(2R,5S)-2-[8-amino-5-chloro-1-(4-{[4-(difluoromethyl)pyridin-2-yl]carbamoyl}-2-fluorophenyl)imidazo[1,5-a]pyrazin-3-yl]-5-methylmorpholin-4-yl}-1-methylcyclohexanecarboxylic acid], the 50% inhibitory concentration (IC50) in experiment [1] was determined as 737 nM; in experiment [2] (Homo sapiens, HeLa), 10000 nM.
Turning to `C[C@@]1(C(=O)O)CC[C@@](C)(c2nc(-c3ccc(C(=O)Nc4cc(C(F)(F)F)ccn4)cc3Cl)c3c(N)nccn23)C1` [Example 132, (1R,3R)-3-[8-amino-1-(2-chloro-4-{[4-(trifluoromethyl)pyridin-2-yl]carbamoyl}phenyl)imidazo[1,5-a]pyrazin-3-yl]-1,3-dimethylcyclopentane carboxylic acid], the concentration for half-maximal inhibition (IC50) in experiment [1] came to 0.25 nM; in experiment [2] (Homo sapiens, HeLa) it was 3160 nM.
With `C[C@@]1(C(=O)O)CCC[C@@](C)(c2nc(-c3ccc(C(=O)Nc4cc(C(F)(F)F)ccn4)cc3)c3c(N)nccn23)C1` [Example 138, (1R,3R)-3-[8-amino-1-(4-{[4-(trifluoromethyl)pyridin-2-yl]carbamoyl}phenyl)imidazo[1,5-a]pyrazin-3-yl]-1,3-dimethylcyclohexane-carboxylic acid], the IC50 turned out to be 0.34 nM in experiment [1] and 6070 nM in experiment [2].
As for `C[C@H]1CO[C@@H](c2nc(-c3ccc(C(=O)Nc4cc(C(F)(F)F)ccn4)cc3F)c3c(N)nccn23)CN1[C@H]1CC[C@](C)(C(=O)O)CC1` [Example 193, trans-4-{(2R,5S)-2-[8-amino-1-(2-fluoro-4-{[4-(trifluoromethyl)pyridin-2-yl]carbamoyl}phenyl)imidazo [1,5-a]pyrazin-3-yl]-5-methylmorpholin-4-yl}-1-methylcyclohexanecarboxylic acid], the IC50 in experiment [1] was 0.56 nM; in experiment [2] (Homo sapiens, HeLa), 2840 nM.
Taken in the same sequence, the figures for `CC(C)(C(=O)O)C1CCC(c2nc(-c3ccc(C(=O)Nc4cc(C(F)(F)F)ccn4)cc3)c3c(N)nccn23)C1` (stereo not shown) [Example 95, 2-{3-[8-amino-1-(4-{[4-(trifluoromethyl)pyridin-2-yl]carbamoyl}phenyl)imidazo[1,5-a]pyrazin-3-yl]cyclopentyl}-2-methylpropanoic acid] were 1.7 nM and 5100 nM.
With `CCOc1cc(C(=O)Nc2cc(C(F)(F)F)ccn2)ccc1-c1nc([C@@H]2C[C@@H]3[C@H](C2)[C@H]3C(=O)O)n2ccnc(N)c12` [Example 135, (1R,3R,5S,6r)-3-[8-amino-1-(2-ethoxy-4-{[4-(trifluoromethyl)pyridin-2-yl]carbamoyl}phenyl)imidazo[1,5-a]pyrazin-3-yl]bicyclo[3.1.0] hexane-6-carboxylic acid], the IC50 was found to be 0.43 nM in experiment [1] and 6780 nM in experiment [2] (Homo sapiens, HeLa).
Taken in the same sequence, the figures for `CC1(C)[C@H](c2nc(-c3ccc(C(=O)Nc4cc(C(F)(F)F)ccn4)cc3)c3c(N)nccn23)CC[C@]1(C)C(=O)O` [Example 69, (1S,3R)-3-[8-amino-1-(4-{[4-(trifluoromethyl)pyridin-2-yl]carbamoyl}phenyl)imidazo[1,5-a]pyrazin-3-yl]-1,2,2-trimethylcyclopentane carboxylic acid] were 0.37 nM and 1080 nM.
With `Nc1nccn2c(-c3ccc(C(=O)O)c(F)c3)nc(-c3ccc(C(=O)Nc4cc(C(F)(F)F)ccn4)cc3)c12` [Example 25, 4-[8-amino-1-(4-{[4-(trifluoromethyl)pyridin-2-yl]carbamoyl}phenyl)imidazo[1,5-a]pyrazin-3-yl]-2-fluorobenzoic acid], the IC50 in experiment [1] came to 1.7 nM; in experiment [2] (Homo sapiens, HeLa) it was 6110 nM.
